Assay results reported in US9205064B2, “Methods for the diagnosis of oncological disorders using epimetabolic shifters, multidimensional intracellular molecules, or environmental influencers” (Berg LLC, priority 2009, dated 2015).

Tested on: Isocitrate Dehydrogenase-1 (IDH-1)
Assay: Western blot of IDH1 levels in normal and cancer cells
Format: cell-based, human
Settings: PACA2, 5g48-100
Protocol: The whole cell pellets were resuspended one at a time in 1 mL of C7 buffer and transferred to labeled 15 mL tubes. The samples were then sonicated in the cold room on ice using 6 sonic pulses with the setting at #14. The samples were spun for a short time to 2500 g after sonication and the samples transferred to 2 ml tubes. The pH was verified of each sample (pH should be 9.0) using the foam remaining in the […] sample tubes.
Alkylation and reduction of samples was performed for each sample by adding 10 ul of 1M acrylamide, 25 ul of tributylphoshene and incubation for 90 mins with intermittent mixing. After incubation, 10 ul of 1M DTT was added and the tubes were spun at 20,000 g at 20 deg C. for 10 minutes and transferred the supernatant to labeled Amicon Ultra centrifugal filter units with a 10 k cut off (Millipore catalog #UFC 801024). The samples were spun for 15 minutes at 2500 g in 2 intervals. The conductivity was measured for Chaps alone as well as the samples using a conductivity meter. If the conductivity of samples is high, then 1 ml of chaps was added for buffer exchange and spun again at 2500 g until the volume was down to 250 ul. […]
The samples were processed as per standard protocols as described above and the amount of protein in each of the samples was determined by Bradford assay. […]

COC1=C(OC)C(=O)C(C/C=C(\C)CC/C=C(\C)CC/C=C(\C)CC/C=C(\C)CC/C=C(\C)CC/C=C(\C)CC/C=C(\C)CC/C=C(\C)CC/C=C(\C)CCC=C(C)C)=C(C)C1=O [Q10, Coenzyme Q10]
IDH1 Normalized Intensity (HASMC vs. PACA2): 860
